According to patent publication US20030165585A1, “Xanthine-containing compositions for oral administration and uses related thereto” (priority 2002, published 2003):

Key:
Assay type in all cases: in vivo, human
subjects [1] = test: Stimulant effect: scores in video game of skill Pilot Wing before and after consuming composition; details: five subjects, crossover over three days, Formulation I vs 180 mg caffeine vs placebo
Protocol: Five subjects were tested over a period of three days. […] Both prior to and after consuming the composition, each subject played a video game of skill called Pilot Wing™ made by Nintendo™.

subjects [2] = test: Standard short-term memory test (repeating a read series of numbers backward); details: three of the five subjects; test 30 minutes after ingestion
Protocol: The test consisted of an examiner reading a series of numbers to the subject and the subject subsequently being asked to repeat said numbers backward. In all cases, the test was initiated 30 minutes after ingestion of the composition.

[3] = Weight loss in overweight subjects, daily administration over two weeks; details: Formulation I (ten subjects) vs 180 mg caffeine capsules (five) vs placebo (five), FIG. 1
Description: Weights were averaged and weight loss was charted every three days in all groups.

Compound: Cn1c(=O)c2c(ncn2C)n(C)c1=O [caffeine]
- video game scores after consuming the composition (subjects [1]): higher scores after consuming the caffeine, compared to consuming the placebo
- digits repeated backwards without error (subjects [2]): could not repeat this accomplishment
- weight loss compared between groups [3]: not matched
